We go through nine compounds from patent US5037812A, “Tumor cell growth-inhibiting pharmaceutical compositions containing phosphino-hydrocarbon-gold, silver or copper complexes” (priority 1986, dated 1991).

“And” between values parts separate entries of the source, which are not always exact repeats. Identical values can stand only once.

Usually Inhibition stands for the drop in the measured response relative to a control, in per cent. A low value points to a weak effect.

The conditions of data set [1]: Struck et al., J. Med. Chem., 9, 414-416 (1966); cited from earlier work.
The test system of data set [2] is M5076 reticulum cell sarcoma. The following applies: positive control, general statement; cited from earlier work.
For data set [3], the system named is mammary adenocarcinoma 16/c. The following applies: positive control, general statement; cited from earlier work.
Data set [4] concerns mammary adenocarcinoma 16/c. Kind of data set: sc mammary adenocarcinoma 16/c tumor model. Type of data set: in vivo, mice (C3H). The following applies: q4D × 5, 6 mg/kg; for Inhibition: Day 21. As for the experimental part:
In this experiment, the tumor was implanted sc in C3H mice, and the drug was administered ip or iv on an intermittent treatment schedule, i.e., once on days 1, 5, 9, 13 and 17. Tumors were measured 3 weeks after implantation, and activity was assessed by degree of tumor growth inhibition.
*N.P. = Proportion of mice without palpable tumors on Day 21

The test system of a further data set is B16 melanoma. As to the kind of experiment: in vivo ip B16 melanoma assay. Further details: species or system mice (B6D2F1). The following applies: ip qDX10; for MTD (maximally tolerated dose): B6D2F1 mice; for ILS (maximum increase in lifespan): mice bearing ip B16 melanoma, slash-separated figures are separate experiments. As for the experimental part: Daily treatment is begun 24 hours after tumor implantation and is continued daily for ten (10) days. The route of drug administration is ip. The mice are monitored daily for survival for sixty (60) days. Antitumor activity is assessed by prolongation of median survival time. An ILS of ≥25% indicates activity in this tumor model.
^(b) maximally tolerated dose for B6D2F1 mice on an ip qDX10
^(c) maximum increase in lifespan produced in mice bearing ip B16

In a further data set the test system is P388 leukemia. As to the kind of experiment: ip P388 leukemia mouse model. The following applies: for MTD (maximally tolerated dose): B6D2F female mice, ip qDX5; for ILS max (maximum increase in lifespan): mice bearing ip P388 leukemia, ip days 1-5 at MTD, slash-separated figures are separate experiments. The data set is classed as in vivo, mice (B6D2F1). As to the method: This tumor system is widely accepted as an antitumor agent screening tool because it is sensitive to virtually all of the clinically active antineoplastic agents; quantitative and reproducible; amenable for large-scale screening; and predictive for activity in other animal tumor models.
10^6 P388 leukemia cells are inoculated ip in B6D2F1 mice. Twenty-four hours later, if the tumor inoculum proves to be free of bacterial contamination (as determined by 24 hours incubation in thioglycollate broth), animals are randomized into groups of 6 and housed in shoebox cages. […] An equal volume of saline or water is added; if the drug comes out of solution an equal volume of Cremophor (polyethoxylated castor oil) is added and then saline or water, as to a concentration such that the desired dose is delivered in 0.5 ml. The final concentration of DMA, ethanol or Cremophor is 10 percent. Dilutions for lower doses are made with saline or water so that there is a decreasing proportion of organic solvents in the vehicle with decreasing dosage. […] Formulations are prepared immediately prior to injection. The Formula (I) and Formula (II) compounds are administered ip on Days 1 through 5 (i.e., treatment is initiated 24 hrs after tumor inoculation). Each experiment includes three groups of 6 animals as untreated controls and animals treated with a positive control, cisplatin, at two dose levels. Animals are weighed as a group on Days 1, 5 and 9 and average weight change (Δwt.) is used as a reflection of toxicity. Each experiment also includes an inoculum titration--groups of 8 mice inoculated ip with 10^5 to 10^0 P388 leukemia cells. The titration is used as a quality control check for the performance of the tumor model. Animals are monitored daily for mortality and experiments are terminated after 45 days. The endpoint is median survival time (MST) and increase in lifespan (ILS) which is the percentage of increase in MST relative to untreated controls.

The subject of data set [5] is M5076 reticulum cell sarcoma. As to the kind of experiment: ip M5076 reticulum cell sarcoma in mice. Type of data set: in vivo, mice (B6D2F female). Conditions: for MTD (maximally tolerated dose): B6D2F female mice, ip qDX10; for ILS max (maximum increase in lifespan): mice bearing ip M5076, ip qDX10 at MTD, slash-separated figures are separate experiments. As for the experimental part: Another tumor model used for evaluation of tumor growth inhibiting drugs is intraperitoneally implanted M5076 reticulum cell sarcoma in mice. […] Drugs are administered ip. Daily treatment is begun 24 hours after implantation and is continued for ten days. The treatment regimen for M5076 is more prolonged than for P388 because of the slower growth rate and longer control survival time of the M5076 tumor. Compounds of Formula (I) and Formula (II) were evaluated in this assay. An evaluation of several compounds of Formula (I) in the M5076 reticulum cell sarcoma assay at their maximally tolerated dose (MTD) is set forth in Table III. An ILS of ≥25% indicates activity in this tumor model.
^(b) maximally tolerated dose for B6D2F female mice on an ip qDX10
^(c) maximum increase in lifespan produced in mice bearing ip M5076

For another data set, the system named is B16 melanoma cells. Kind of data set: B16 melanoma cell assay, clonogenic capacity in vitro after two-hour exposure. Type of data set: cell-based. The following applies: 2-hour exposure; read-out: IC50: concentration which inhibits cloning efficiency of B16 melanoma cells by 50%. As for the experimental part: The B16 melanoma cell assay measures the ability of a compound to inhibit the clonogenic capacity of cells in vitro following a two-hour exposure to the compound.
B16 melanoma (highly metastatic subline, F10) are used and maintained as monolayer cultures in Minimal Essential Media (Grand Island Biological Col., Grand Island, N.Y.) supplemented with 10% calf serum, 1% antibiotics in a 5% CO2 humidified incubator at 37° C. Asynchronous populations of cells are harvested and replated to 5000 cells/plate in sterile 60 mm×15 mm petri plates. Plates are incubated overnight to allow attachment of the cells to the plate. Cells are treated with a Formula (I) or Formula (II) compound/under sterile conditions, allowed to react for 2 hours followed by aspiration of medium. Plates are washed one time with 5 ml of phosphate buffered saline (PBS), followed by the addition of 5 ml of fresh medium. Plates are incubated for 5 days at 37° C. in a CO2 incubator. Viability is measured by the ability of a cell to form a colony of greater than 50 cells. Colonies are fixed with 0.5% crystal violet in 95% ethanol. Plates are dried and counted with a Biotran III Automatic Count Totalizer (New Brunswick Scientific Co., Edison, N.J.). Mean and standard deviation of triplicate samples are determined for each drug concentration. The data are analyzed plotting the log of the survival fraction (number of colonies in drug treated plates/number of colonies in controls) versus the drug concentration.
^a Concentration which inhibits cloning efficiency of B16 melanoma
cells by 50% on a 2hour exposure

The conditions of data set [6]: 15 h.
Experimental: Such solubility was determined as follows: The compound in question was dissolved or suspended in absolute ethanol (250 mg solid per 1.0 ml ethanol). To the resulting solution or suspension, water (9.0 times the volume of ethanol) was added. This suspension was stirred vigorously for 15 hours, then filtered through a 0.45 μm poly(tetrafluoroethylene) (PTFE) filter. […] The HPLC system was as follows:
Column PLRP-S, 5μm, obtained from Polymer Laboratories, Inc.
Mobile Phase 9:1 acetonitrile:0.1% tetra-n-butylammonium hydrogen sulfate (50° C., 1.0 ml-min-^-1)
Detection Ultraviolet (250 nm)

For `c1ccc(P(CCP(c2ccccc2)c2ccccc2)c2ccccc2)cc1` [1,2-bis(diphenyl-phosphino)ethane], the “cytotoxic activity (in words)” value in data set [1] is “cytotoxic activity”.
As to `N.N.[Cl][Pt][Cl]` [Cisplatin, reference compound], the “tumor growth inhibition (in words)” value in data set [2] was “complete tumor growth inhibition”. Moreover, in [3], the “inhibition of the growth of mammary adenocarcinoma 16/c (in words)” value was “complete inhibition”. Besides, the “Mean Tumor Volume on Day 21” value was 30 ± 64 mm^3 in data set [4] (Experiment 1, ip); 0 mm^3 in data set [4] (Experiment 2, ip); 21 ± 61 mm^3 in [4] (Experiment 2, iv); 586 ± 266 mm^3 in data set [4] (Experiment 3, ip). Also, the “N.P. (proportion of mice without palpable tumors on Day 21)” value in [4] (Experiment 1, ip) is 6/8; in data set [4] (Experiment 2, ip), 8/8; in [4] (Experiment 2, iv), 7/8; in data set [4] (Experiment 3, ip), 0/8. Further, the Inhibition is given as 97% in [4] (Experiment 1, ip); 100% in data set [4] (Experiment 2, ip); 98% in [4] (Experiment 2, iv); 37% in data set [4] (Experiment 3, ip).
Turning to `[Au+].[Cl-].c1ccc(P(CCCP(c2ccccc2)c2ccccc2)c2ccccc2)cc1.c1ccc(P(CCCP(c2ccccc2)c2ccccc2)c2ccccc2)cc1` [compound 4, Bis[1,3-Bis(diphenylphosphino)propane]Gold(I) Chloride], in the data set on B16 melanoma, the “MTD (maximally tolerated dose)” value is recorded as 2 mg/kg; the “ILS (maximum increase in lifespan)” value is 34% and 28% and 40%. Besides, in the data set with P388 leukemia, the “MTD (maximally tolerated dose)” value stood at 3 mg/kg and the “ILS max (maximum increase in lifespan)” value amounted to 89 ± 28%. For the same compound, in [5], the “MTD (maximally tolerated dose)” value turned out to be 2 mg/kg and the “ILS max (maximum increase in lifespan)” value is 116%. The IC50 with B16 melanoma cells turned out to be 600 nM.
With `CCP(CC)CCP(c1ccccc1)c1ccccc1.CCP(CC)CCP(c1ccccc1)c1ccccc1.[Au+].[Cl-]` [compound 8], in the data set on P388 leukemia, the “MTD (maximally tolerated dose)” value is given as 3 mg/kg and the “ILS max (maximum increase in lifespan)” value amounted to 54 ± 16%. In addition, in data set [5], the “MTD (maximally tolerated dose)” value turned out to be 2 mg/kg and the “ILS max (maximum increase in lifespan)” value came to 46%.
Consider `C1=C[PH](c2ccccc2)(c2ccccc2)[Cu+]2([PH]1(c1ccccc1)c1ccccc1)[PH](c1ccccc1)(c1ccccc1)C=C[PH]2(c1ccccc1)c1ccccc1.[Cl-]` (stereo not drawn) [compound 13, Bis[cis-1,2-bis(diphenylphosphino)ethylene]Copper(I) Chloride], for which, in the data set on B16 melanoma, the “MTD (maximally tolerated dose)” value amounted to 0.75 mg/kg and the “ILS (maximum increase in lifespan)” value stood at 42%. In the data set on P388 leukemia, the “MTD (maximally tolerated dose)” value is recorded as 3 mg/kg and the “ILS max (maximum increase in lifespan)” value worked out at 70 ± 23%. Also, in data set [5], the “MTD (maximally tolerated dose)” value turned out to be 2 mg/kg and the “ILS max (maximum increase in lifespan)” value is listed as 40%.
`O=C([O-])C(O)CO.[Au+].c1ccc(P(CCP(c2ccccc2)c2ccccc2)c2ccccc2)cc1.c1ccc(P(CCP(c2ccccc2)c2ccccc2)c2ccccc2)cc1` [compound 25, Bis[1,2-bis(diphenylphosphino)ethane]gold(I) DL-2,3-dihydroxypropanoate]: in the data set with B16 melanoma, the “MTD (maximally tolerated dose)” value came out at 0.75 mg/kg and the “ILS (maximum increase in lifespan)” value turned out to be 28%. In [6], the “Solubility in 9:1 Water:Ethanol” value was determined as 2200 µg/mL. Moreover, in the data set on P388 leukemia, the “MTD (maximally tolerated dose)” value is reported as 2 mg/kg; the “ILS max (maximum increase in lifespan)” value is 55% and 65%.
For the compound “Bis[1,2-bis(diphenylphosphino)ethane]Silver(I) Nitrate [compound 2]”, the results for the “MTD (maximally tolerated dose)” value (with P388 leukemia; in data set [5]) were 3 mg/kg and 2 mg/kg, respectively. Further, the “ILS max (maximum increase in lifespan)” value is 89% and 90% in the data set with P388 leukemia; 48% in data set [5]. The IC50 in the data set on B16 melanoma cells came to 4000 nM.
With “Bis[cis-1,2-bis(diphenylphosphino)ethylene]Gold(I) Chloride [compound 3]”, in the data set on B16 melanoma, the “MTD (maximally tolerated dose)” value is on record as 1.5 mg/kg and the “ILS (maximum increase in lifespan)” value was determined as 35%. For the same compound, in the data set on P388 leukemia, the “MTD (maximally tolerated dose)” value is given as 2 mg/kg and the “ILS max (maximum increase in lifespan)” value is reported as 92 ± 26%. In [5], the “MTD (maximally tolerated dose)” value is on record as 2.4 mg/kg and the “ILS max (maximum increase in lifespan)” value stood at 69%. The IC50 with B16 melanoma cells is 2000 nM.
On to “Tris[1,2-bis(diphenylphosphino)ethane]Dicopper(I) Chloride”, for which the “MTD (maximally tolerated dose)” value in the data set on B16 melanoma is reported as 1 mg/kg; in the data set with P388 leukemia it was 2 mg/kg; in data set [5] it was 1.6 mg/kg. The “ILS (maximum increase in lifespan)” value in the data set on B16 melanoma is reported as 54%. Also, the “ILS max (maximum increase in lifespan)” value in the data set on P388 leukemia was 100% and 115%; in data set [5], 60%.
